Assays:
Akt = system: T1, Akt; assay: In vitro phosphorylation of Akt T308 by PDK1; format: biochemical; details: inactive Akt, PE/PC/PS/PIP3 vesicles
T1 construct: purchased Millipore 14-279

DMPK = assay: KINOMEscan; details: 50000 nM
Protocol: KINOMEscan™ selectivity screen
(§1) The assay was perfor med at DiscoveRx Corporation according the methods published previously5. Briefly, Kinase-tagged T7 phage strains were grown in parallel in an E. coli host derived from the BL21 strain. E. coli were grown to log-phase and infected with T7 phage from a frozen stock and incubated with shaking at 32°C until lysis (90-150 minutes). The kinases were produced in HEK-293 cells and subsequently tagged with DNA for qPCR detection. Streptavidin-coated magnetic beads were treated with biotinylated small molecule ligands to generate affinity resins for kinase
(§2) inhibitor or DMSO control was performed in polypropylene 384-well plates for 1 hr at room temperature. After wash with PBS buffer containing 0.05% Tween 20, the beads were incubated in elution buffer (PBS containing 0.05 % Tween 20 and 0.5 μM non-biotinylated affinity ligand) for 30 minutes at room temperature. The kinase concentration in the eluates was measured by qPCR.

GRK3 = assay: KINOMEscan; details: 50000 nM
Protocol: KINOMEscan™ selectivity screen
(§3) Briefly, Kinase-tagged T7 phage strains were grown in parallel in an E. coli host derived from the BL21 strain. E. coli were grown to log-phase and infected with T7 phage from a frozen stock and incubated with shaking at 32°C until lysis (90-150 minutes). The kinases were produced in HEK-293 cells and subsequently tagged with DNA for qPCR detection. Streptavidin-coated magnetic beads were treated with biotinylated small molecule ligands to generate affinity resins for kinase
as §2

HCK = assay: KINOMEscan; details: 50000 nM
Protocol: KINOMEscan™ selectivity screen
as §3, §2

IKK-epsilon = assay: KINOMEscan; details: 50000 nM
Protocol: KINOMEscan™ selectivity screen
as §3, §2

LIMK1 = assay: KINOMEscan; details: 50000 nM
Protocol: KINOMEscan™ selectivity screen
as §1, §2

MAP4K2 = assay: KINOMEscan; details: 50000 nM
Protocol: KINOMEscan™ selectivity screen
as §1, §2

MAP4K5 = assay: KINOMEscan; details: 50000 nM
Protocol: KINOMEscan™ selectivity screen
as §1, §2

PIK3CA(C420R) = assay: KINOMEscan; details: 50000 nM
Protocol: KINOMEscan™ selectivity screen
as §3, §2

PRKG2 = assay: KINOMEscan; details: 50000 nM
Protocol: KINOMEscan™ selectivity screen
as §1, §2

ZAK = assay: KINOMEscan; details: 50000 nM
Protocol: KINOMEscan™ selectivity screen
as §3, §2

BRK = assay: KINOMEscan; details: 50000 nM
Protocol: KINOMEscan™ selectivity screen
as §1, §2

LKB1 = assay: KINOMEscan; details: 50000 nM
Protocol: KINOMEscan™ selectivity screen
The assay was perfor med at DiscoveRx Corporation according the methods published previously5. […] The kinases were produced in HEK-293 cells and subsequently tagged with DNA for qPCR detection. Streptavidin-coated magnetic beads were treated with biotinylated small molecule ligands to generate affinity resins for kinase
as §2

S6K1 = assay: KINOMEscan; details: 50000 nM
Protocol: KINOMEscan™ selectivity screen
as §1, §2

PIK3CA(I800L) = assay: KINOMEscan; details: 50000 nM
Protocol: KINOMEscan™ selectivity screen
as §1, §2

TAOK1 = assay: KINOMEscan; details: 50000 nM
Protocol: KINOMEscan™ selectivity screen
as §1, §2

ABL2 = assay: KINOMEscan; details: 50000 nM
Protocol: KINOMEscan™ selectivity screen
as §1, §2

PIK3CG = assay: KINOMEscan; details: 50000 nM
Protocol: KINOMEscan™ selectivity screen
as §3, §2

CLK3 = assay: KINOMEscan; details: 50000 nM
Protocol: KINOMEscan™ selectivity screen
as §3, §2

[1] = system: RPS6KA4(Kin.Dom.2-C-terminal); assay: KINOMEscan; details: 50000 nM
Protocol: KINOMEscan™ selectivity screen
as §1, §2

CDK11 = assay: KINOMEscan; details: 50000 nM
Protocol: KINOMEscan™ selectivity screen
as §1, §2

AMPK-alpha1 = assay: KINOMEscan; details: 50000 nM
Protocol: KINOMEscan™ selectivity screen
as §1, §2

EGFR(L858R,T790M) = assay: KINOMEscan; details: 50000 nM
Protocol: KINOMEscan™ selectivity screen
as §1, §2

MYLK = assay: KINOMEscan; details: 50000 nM
Protocol: KINOMEscan™ selectivity screen
as §1, §2

PRKD3 = assay: KINOMEscan; details: 50000 nM
Protocol: KINOMEscan™ selectivity screen
as §1, §2

LATS1 = assay: KINOMEscan; details: 50000 nM
Protocol: KINOMEscan™ selectivity screen
as §1, §2

PKAC-beta = assay: KINOMEscan; details: 50000 nM
Protocol: KINOMEscan™ selectivity screen
as §1, §2

CDK8 = assay: KINOMEscan; details: 50000 nM
Protocol: KINOMEscan™ selectivity screen
as §1, §2

RET(V804M) = assay: KINOMEscan; details: 50000 nM
Protocol: KINOMEscan™ selectivity screen
as §1, §2

EGFR(L858R) = assay: KINOMEscan; details: 50000 nM
Protocol: KINOMEscan™ selectivity screen
as §1, §2

FGFR3 = assay: KINOMEscan; details: 50000 nM
Protocol: KINOMEscan™ selectivity screen
as §1, §2

PAK1 = assay: KINOMEscan; details: 50000 nM
Protocol: KINOMEscan™ selectivity screen
as §1, §2

CAMK2G = assay: KINOMEscan; details: 50000 nM
Protocol: KINOMEscan™ selectivity screen
as §1, §2

CSNK1A1L = assay: KINOMEscan; details: 50000 nM
Protocol: KINOMEscan™ selectivity screen
as §1, §2

MEK3 = assay: KINOMEscan; details: 50000 nM
Protocol: KINOMEscan™ selectivity screen
as §1, §2

PFTAIRE2 = assay: KINOMEscan; details: 50000 nM
Protocol: KINOMEscan™ selectivity screen
as §1, §2

NEK9 = assay: KINOMEscan; details: 50000 nM
Protocol: KINOMEscan™ selectivity screen
as §1, §2

CAMK2D = assay: KINOMEscan; details: 50000 nM
Protocol: KINOMEscan™ selectivity screen
as §3, §2

MLCK = assay: KINOMEscan; details: 50000 nM
Protocol: KINOMEscan™ selectivity screen
as §1, §2

BRSK1 = assay: KINOMEscan; details: 50000 nM
Protocol: KINOMEscan™ selectivity screen
as §1, §2

PIK3CB = assay: KINOMEscan; details: 50000 nM
Protocol: KINOMEscan™ selectivity screen
as §3, §2

[2] = system: RSK3(Kin.Dom.1-N-terminal); assay: KINOMEscan; details: 50000 nM
Protocol: KINOMEscan™ selectivity screen
as §3, §2

NEK3 = assay: KINOMEscan; details: 50000 nM
Protocol: KINOMEscan™ selectivity screen
as §1, §2

PIM3 = assay: KINOMEscan; details: 50000 nM
Protocol: KINOMEscan™ selectivity screen
as §1, §2

[3] = system: ABL1(H396P)-nonphosphorylated; assay: KINOMEscan; details: 50000 nM
Protocol: KINOMEscan™ selectivity screen
as §1, §2

[4] = system: JAK2(JH1domain-catalytic); assay: KINOMEscan; details: 50000 nM
Protocol: KINOMEscan™ selectivity screen
as §3, §2

TLK1 = assay: KINOMEscan; details: 50000 nM
Protocol: KINOMEscan™ selectivity screen
as §1, §2

IRAK1 = assay: KINOMEscan; details: 50000 nM
Protocol: KINOMEscan™ selectivity screen
as §1, §2

PDGFRA = assay: KINOMEscan; details: 50000 nM
Protocol: KINOMEscan™ selectivity screen
as §1, §2

TTK = assay: KINOMEscan; details: 50000 nM
Protocol: KINOMEscan™ selectivity screen
as §3, §2

GSK3A = assay: KINOMEscan; details: 50000 nM
Protocol: KINOMEscan™ selectivity screen
as §3, §2

CSF1R-autoinhibited = assay: KINOMEscan; details: 50000 nM
Protocol: KINOMEscan™ selectivity screen
as §1, §2

[5] = system: TYK2(JH2domain-pseudokinase); assay: KINOMEscan; details: 50000 nM
Protocol: KINOMEscan™ selectivity screen
as §1, §2

SMILES: Oc1cc(-c2ccccc2)c2ccccc2n1 [G7, 4-phenylquinolin-2(1H)-one]
- in vitro phosphorylation of T308 by PDK1 (Akt): impaired
- Percent Control (DMPK): 100%
- Percent Control (GRK3): 100%
- Percent Control (HCK): 100%
- Percent Control (IKK-epsilon): 100%
- Percent Control (LIMK1): 100%
- Percent Control (MAP4K2): 100%
- Percent Control (MAP4K5): 100%
- Percent Control (PIK3CA(C420R)): 100%
- Percent Control (PRKG2): 100%
- Percent Control (ZAK): 100%
- Percent Control (BRK): 96%
- Percent Control (LKB1): 96%
- Percent Control (S6K1): 96%
- Percent Control (PIK3CA(I800L)): 95%
- Percent Control (TAOK1): 95%
- Percent Control (ABL2): 94%
- Percent Control (PIK3CG): 94%
- Percent Control (CLK3): 92%
- Percent Control [1]: 92%
- Percent Control (CDK11): 91%
- Percent Control (AMPK-alpha1): 90%
- Percent Control (EGFR(L858R,T790M)): 90%
- Percent Control (MYLK): 90%
- Percent Control (PRKD3): 89%
- Percent Control (LATS1): 87%
- Percent Control (PKAC-beta): 86%
- Percent Control (CDK8): 85%
- Percent Control (RET(V804M)): 85%
- Percent Control (EGFR(L858R)): 83%
- Percent Control (FGFR3): 83%
- Percent Control (PAK1): 82%
- Percent Control (CAMK2G): 81%
- Percent Control (CSNK1A1L): 81%
- Percent Control (MEK3): 81%
- Percent Control (PFTAIRE2): 81%
- Percent Control (NEK9): 80%
- Percent Control (CAMK2D): 79%
- Percent Control (MLCK): 78%
- Percent Control (BRSK1): 72%
- Percent Control (PIK3CB): 69%
- Percent Control [2]: 69%
- Percent Control (NEK3): 68%
- Percent Control (PIM3): 64%
- Percent Control [3]: 62%
- Percent Control [4]: 61%
- Percent Control (TLK1): 59%
- Percent Control (IRAK1): 53%
- Percent Control (PDGFRA): 52%
- Percent Control (TTK): 24%
- Percent Control (GSK3A): 22%
- Percent Control (CSF1R-autoinhibited): 16%
- Percent Control [5]: 15%

— publication PMC5601486, “Identification of 4-phenylquinolin-2(1H)-one as a specific allosteric inhibitor of Akt” (Scientific Reports, 2017)
